Structures can show the parent of a compound that is named as a salt.
Row | SMILES | melting point
1 | COc1ccc(C)cc1S(=O)(=O)NC[C@H]1CC[C@H](Nc2nc3c(s2)CCOc2ccccc2-3)CC1 (as salt: HCl) [Example 48, trans-1-Aza-4,5-dihydro-2-{4-(2-methoxy-5-methyl)phenyl-sulfonylaminomethyl}cyclohexylamino-6-oxa-3-thia-benzo[e]azulene] | 100 to 105 °C (dec.)
2 | COc1ccc(C)cc1S(=O)(=O)NCCOCCNc1nc2c(s1)CCCc1ccc(F)cc1-2 (as salt: HCl) [Example 58, 1-Aza-9-fluoro-4,5-dihydro-2-{2-[2-(2-methoxy-5-methylphenyl)sulfonylamino]ethoxy}ethylamino-3-thia-benzo[e]azulene] | 56 to 60 °C
3 | COc1ccc2c(c1)-c1nc(NC[C@H]3CC[C@H](NS(C)(=O)=O)CC3)sc1CCO2 (as salt: HCl) [Example 63, trans-1-Aza-4,5-dihydro-9-methoxy-2-{4-methylsulfonyl-amino}cyclohexylmethylamino-6-oxa-3-thia-benzo[e]azulene] | 200 to 215 °C
4 | COc1cccc2c1OCCc1sc(NC[C@H]3CC[C@H](NS(=O)(=O)N(C)C)CC3)nc1-2 (as salt: HCl) [Example 66, trans-1-Aza-4,5-dihydro-7-methoxy-2-{4-dimethylamino-sulfonylamino}cyclohexylmethylamino-6-oxa-3-thia-benzo[e]azulene] | 206 to 208 °C
5 | CC(C)S(=O)(=O)NCCOCCNc1nc2c(s1)CCCc1ccc(F)cc1-2 (as salt: HCl) [Example 69, 1-Aza-9-fluoro-4,5-dihydro-2-(2-(2-isopropyl-sulfonylamino)-ethoxy)ethylamino-3-thia-benzo[e]-azulene] | 50 to 55 °C
6 | O=C1OCCN1C[C@H]1CC[C@H](Nc2nc3c(s2)CCCc2ccc(F)cc2-3)CC1 (as salt: HCl) [Example 79, 3-({4-[(9-fluoro-5,6-dihydro-4H-benzo[6,7]cyclohepta-[d][1,3]thiazol-2-yl)amino]cyclohexyl}methyl)-1,3-oxazolan-2-one] | 223 to 225 °C
7 | COCC(=O)NC[C@H]1CC[C@H](Nc2nc3c(s2)CCCc2ccc(F)cc2-3)CC1 (as salt: HCl) [Example 80, N1-({4-[(9-fluoro-5,6-dihydro-4H-benzo[6,7]-cyclohepta-[d][1,3]thiazol-2-yl)amino]cyclohexyl}-methyl)-2-methoxyacetamide] | 63 to 65 °C
8 | COCC(=O)N[C@H]1CC[C@H](CNc2nc3c(s2)CCOc2ccccc2-3)CC1 (as salt: HCl) [Example 84, N1-{4-[(4,5-dihydrobenzo[2,3]oxepino[4,5-d][1,3]thiazol-2-ylamino)methyl]cyclohexyl}-2-methoxyacetamide] | 234 to 237 °C
9 | COCCN(C=O)[C@H]1CC[C@H](CNc2nc3c(s2)CCOc2ccccc2-3)CC1 (as salt: HCl) [Example 86, N-{4-[(4,5-dihydrobenzo[2,3]oxepino[4,5-d][1,3]thiazol-2-ylamino)methyl]cyclohexyl}-N-(2-methoxyethyl)formamide] | 164 to 166 °C
10 | CCN(C=O)[C@H]1CC[C@H](CNc2nc3c(s2)CCOc2ccccc2-3)CC1 (as salt: HCl) [Example 87, trans-1-Aza-2-(4-(n-(ethyl) formamido)cyclohexyl)methyl-amino-4,5-dihydro-6-oxa-3-thia-benzo[e]azulene] | 210 to 213 °C
11 | CCCN(C=O)[C@H]1CC[C@H](CNc2nc3c(s2)CCOc2ccccc2-3)CC1 (as salt: HCl) [Example 88, N-{4-[(4,5-Dihydrobenzo[2,3]oxepino[4,5-d][1,3]-thiazol-2-ylamino)methyl]cyclohexyl}-N-propyl-formamide] | 195 to 197 °C
12 | COCC(=O)NCc1ccc(Nc2nc3c(s2)CCCc2ccc(F)cc2-3)cc1 (as salt: HCl) [Example 89, N1-{4-[(9-fluoro-5,6-dihydro-4H-benzo[6,7]cyclohepta-[d][1,3]thiazol-2-yl)amino]benzyl}-2-methoxyacetamide] | 175 to 178 °C
13 | O=S(=O)(CC(F)(F)F)NCCCCNc1nc2c(s1)CCCc1ccc(F)cc1-2 (as salt: TFA) [Example 39, 1-Aza-9-fluoro-4,5-dihydro-2-(4-(2,2,2-trifluoroethyl)-sulfonylamino)butylamino-3-thia-benzo[e]azulene] | 140 to 141 °C
14 | COc1cccc2c1OCCc1sc(NC[C@H]3CC[C@H](NS(C)(=O)=O)CC3)nc1-2 (as salt: hydrochloride) [Example 65, trans-N2-(4-Methylsulfonylamino)cyclohexylmethyl-7-methoxy-4,5-dihydro-benzo[2,3]oxepino[4,5-d][1,3]-thiazol-2-amine hydrochloride] | 225 to 230 °C
15 | CCOC(=O)N[C@H]1CC[C@H](CNc2nc3c(s2)CCCc2ccc(F)cc2-3)CC1 (as salt: hydrochloride) [Example 68, trans-N2-(4-Ethoxycarbonylamino)cyclohexylmethyl-9-fluoro-5,6-dihydro-4H-benzo[6,7]cyclohepta[d][1,3]-thiazol-2-amine hydrochloride] | 94 to 97 °C
16 | COc1ccc2c(c1)CCCc1sc(N[C@H]3CC[C@H](CNS(=O)(=O)N4CCOCC4)CC3)nc1-2 (as salt: hydrochloride) [Example 78, trans-N2-(4-(1-Morpholinylsulfonylaminomethyl)-cyclohexyl-8-methoxy-5,6-dihydro-4H-benzo[6,7]-cyclohepta[d][1,3]thiazol-2-amine hydrochloride] | 130 to 132 °C
17 | O=S(=O)(N[C@H]1CC[C@H](Nc2nc3c(s2)CCCc2ccc(F)cc2-3)CC1)c1cccnc1 (as salt: salt) [Example 54, trans-1-Aza-9-fluoro-4,5-dihydro-2-(4-(3-pyridyl-sulfonylamino)cyclohexyl)amino-3-thia-benzo[e]azulene] | 165 to 167 °C
18 | O=S(=O)(NCCCCCNc1nc2c(s1)CCCc1ccc(F)cc1-2)c1cccnc1 (as salt: salt) [Example 55, 1-Aza-9-fluoro-4,5-dihydro-2-(5-(3-pyridyl)sulfonyl-amino)pentylamino-3-thia-benzo[e]azulene] | 84 to 86 °C
19 | O=S(=O)(NCCCCNc1nc2c(s1)CCCc1ccc(F)cc1-2)c1cccnc1 (as salt: salt) [Example 56, 1-Aza-9-fluoro-4,5-dihydro-2-(4-(3-pyridyl)sulfonyl-amino)butylamino-3-thia-benzo[e]azulene] | 101 to 103 °C
20 | O=S(=O)(NC[C@H]1CC[C@H](Nc2nc3c(s2)CCCc2ccc(F)cc2-3)CC1)c1cccnc1 (as salt: salt) [Example 59, trans-1-Aza-9-fluoro-4,5-dihydro-2-(4-(3-pyridyl)-sulfonylaminomethyl)cyclohexylamino-3-thia-benzo[e]-azulene] | 127 to 129 °C
21 | CS(=O)(=O)NCC1CCC(Nc2nc3c(s2)COc2ccccc2-3)CC1 (stereo not drawn) (as salt: salt) [Example 70, 2-(4-Methylsulfonylaminomethyl)cyclohexylamino-4H-chromeno[4,3-d]thiazole] | 140 to 144 °C
22 | COc1ccc2c(c1)CCCc1sc(NC[C@H]3CC[C@H](NS(C)(=O)=O)CC3)nc1-2 (as salt: salt) [Example 71, trans-1-Aza-4,5-dihydro-8-methoxy-2-(4-methylsulfonyl-amino)cyclohexylmethylamino-3-thia-benzo[e]azulene] | 94 to 97 °C
23 | COc1ccc2c(c1)CCCc1sc(N[C@H]3CC[C@H](CNS(=O)(=O)C(C)C)CC3)nc1-2 (as salt: salt) [Example 73, trans-1-Aza-4,5-dihydro-2-(4-isopropylsulfonyl-aminomethyl)-cyclohexylamino-8-methoxy-3-thia-benzo[e]-azulene] | 87 to 89 °C
24 | CC(C)N(C=O)C[C@H]1CC[C@H](Nc2nc3c(s2)CCCc2ccc(F)cc2-3)CC1 (as salt: salt) [Example 83, trans-1-Aza-9-fluoro-4,5-dihydro-2-(4-(N-isopropyl-formamido)methyl)cyclohexylamino-3-thia-benzo[e]-azulene] | 106 to 107 °C
